Numbers after ± are expanded uncertainties.
Test: mn = molality of the nth substance listed, in mol/kg
Details: 101 kPa, Liquid; for mass density: Vibrating tube method; for speed of sound: Pulse-echo method

CCNC(=O)NCC [1,3-diethylurea] + O
Details	mass density, 288.15 K [kg/m3]	mass density, 293.15 K [kg/m3]	mass density, 298.15 K [kg/m3]	mass density, 303.15 K [kg/m3]	mass density, 308.15 K [kg/m3]	speed of sound, 298.15 K [m/s]
m1 = 0.06282	999.298 ± 0.23	998.383 ± 0.23	997.207 ± 0.23	995.788 ± 0.23	994.155 ± 0.23	1501.8 ± 1.2
m1 = 0.1269	999.524 ± 0.24	998.589 ± 0.24	997.392 ± 0.24	995.959 ± 0.24	994.306 ± 0.24	1507 ± 1.3
m1 = 0.1909	999.768 ± 0.25	998.812 ± 0.25	997.588 ± 0.25	996.14 ± 0.25	994.468 ± 0.25	1512.1 ± 1.3
m1 = 0.2561	1000.03 ± 0.25	999.043 ± 0.25	997.793 ± 0.25	996.313 ± 0.25	994.634 ± 0.25	1517.2 ± 1.3
m1 = 0.3224	1000.31 ± 0.26	999.289 ± 0.26	998.012 ± 0.26	996.517 ± 0.26	994.82 ± 0.26	1522.3 ± 1.3

CNC(=O)NC [1,3-dimethylurea] + O
Details	mass density, 288.15 K [kg/m3]	mass density, 293.15 K [kg/m3]	mass density, 298.15 K [kg/m3]	mass density, 303.15 K [kg/m3]	mass density, 308.15 K [kg/m3]	speed of sound, 298.15 K [m/s]
m1 = 0.06095	999.619 ± 0.23	998.707 ± 0.23	997.534 ± 0.23	996.121 ± 0.23	994.493 ± 0.23	1499.8 ± 1.2
m1 = 0.1226	1000.15 ± 0.23	999.227 ± 0.23	998.04 ± 0.23	996.616 ± 0.23	994.975 ± 0.23	1503 ± 1.2
m1 = 0.1846	1000.69 ± 0.23	999.75 ± 0.23	998.549 ± 0.23	997.113 ± 0.23	995.461 ± 0.23	1506.1 ± 1.2
m1 = 0.247	1001.24 ± 0.23	1000.28 ± 0.23	999.063 ± 0.23	997.613 ± 0.23	995.947 ± 0.23	1509.2 ± 1.2
m1 = 0.3099	1001.79 ± 0.23	1000.82 ± 0.23	999.585 ± 0.23	998.121 ± 0.23	996.442 ± 0.23	1512.3 ± 1.2

CCCCNC(N)=O [N-butylurea] + O
Details	mass density, 288.15 K [kg/m3]	mass density, 293.15 K [kg/m3]	mass density, 298.15 K [kg/m3]	mass density, 303.15 K [kg/m3]	mass density, 308.15 K [kg/m3]	speed of sound, 298.15 K [m/s]
m1 = 0.05745	999.477 ± 0.23	998.55 ± 0.23	997.366 ± 0.23	995.939 ± 0.23	994.3 ± 0.23	1501.5 ± 1.2
m1 = 0.1154	999.871 ± 0.23	998.918 ± 0.23	997.706 ± 0.23	996.251 ± 0.23	994.591 ± 0.23	1506.3 ± 1.2
m1 = 0.173	1000.27 ± 0.23	999.281 ± 0.23	998.053 ± 0.23	996.57 ± 0.23	994.872 ± 0.23	1511.2 ± 1.2
m1 = 0.2305	1000.68 ± 0.23	999.67 ± 0.23	998.404 ± 0.23	996.892 ± 0.23	995.175 ± 0.23	1516 ± 1.2
m1 = 0.2873	1001.11 ± 0.23	1000.06 ± 0.23	998.771 ± 0.23	997.219 ± 0.23	995.477 ± 0.23	1520.9 ± 1.2

Reference: the NIST ThermoML archive (doi:10.1016/j.jct.2012.11.007)
